Series [1] is described as follows: Selectivity index, ratio of IC50 for human MCF10A cells to IC50 for human 518A2 cells. Type of series: functional.
Series [2] is described as follows: Selectivity index, ratio of IC50 for human MCF10A cells to IC50 for human PANC1 cells. Type of series: functional.
In series [3] the test system is Entamoeba histolytica. The series is described as follows: Antiamoebic activity against Entamoeba histolytica assessed as growth inhibition at 50 ug/ml after 48 hrs by trypan blue dye-based hemocytometer relative to control. Format: functional. As to conditions: read-out: GI.
The next series has as its system HCT-116. The series is described as follows: Antiproliferative activity against human HCT116 cells after 72 hrs by MTT assay. As to conditions: HCT-116, 72 h. Format: functional, cell-based. Background: Tetrazolium assays rely on reduction of a dye to a coloured formazan, in cell work by metabolically active cells.
For series [4], the system named is 518A2. The series is described as follows: Induction of reactive oxygen species generation in human 518A2 cells at 0.5 uM after 24 hrs by NBT assay relative to control. Type of series: functional.
A short description of series [5]: Selectivity index, ratio of IC50 for human MCF10A cells to IC50 for human MDA-MB-231 cells. Format: functional.
For series [6], the system named is Trypanosoma brucei brucei. The series is described as follows: Antitrypanosomal activity against bloodstream trypomastigote form of Trypanosoma brucei brucei 65.3 […] after 72 hrs by Alamar Blue assay. Type of series: functional, cell-based. As to conditions: Trypanosoma brucei, 65.3, 72 h. (In general: Alamar Blue is a resazurin reagent that responds to reducing activity.)

The next series concerns BXPC-3. The series is described as follows: Antiproliferative activity against human BxPC3 cells after 96 hrs by MTT assay. Format: functional, cell-based. As to conditions: BXPC-3, 96 h.
In series [7] the test system is Entamoeba histolytica. The series is described as follows: Antiamoebic activity against Entamoeba histolytica assessed as growth inhibition at 50 ug/ml after 24 hrs by trypan blue dye-based hemocytometer relative to control. Format: functional. As to conditions: read-out: GI.
Series [8] concerns Entamoeba histolytica. The series is described as follows: Antiamoebic activity against Entamoeba histolytica assessed as growth inhibition at 25 ug/ml after 24 hrs by trypan blue dye-based hemocytometer relative to control. Format: functional. As to conditions: read-out: GI.
The test system of the next series is PANC-1. The series is described as follows: Antiproliferative activity against human PANC1 cells after 72 hrs by MTT assay. Format: functional, cell-based. As to conditions: PANC-1, 72 h.
Series [9] deals with Trypanosoma brucei brucei. The series is described as follows: Antitrypanosomal activity against bloodstream trypomastigote form of Trypanosoma brucei brucei 65.3 assessed as deformation of microtubule cytoskeleton at 1 to 10 uM after 3 to 6 hrs by DAPI staining-based fluorescence microscopic method. Format: functional.
The test system of series [10] is Trypanosoma brucei brucei. The series is described as follows: Antitrypanosomal activity against bloodstream trypomastigote form of Trypanosoma brucei brucei 65.3 assessed as decrease in parasite viability at 1 to 10 uM after 1 hr by DAPI staining-based fluorescence microscopic method. Format: functional.
Series [11] deals with Entamoeba histolytica. The series is described as follows: Antiamoebic activity against Entamoeba histolytica assessed as growth inhibition at 50 ug/ml after 72 hrs by trypan blue dye-based hemocytometer relative to control. Type of series: functional. As to conditions: read-out: GI.
The test system of series [12] is HeLa. The series is described as follows: Cytotoxicity against human HeLa cells assessed as effect on cytoskeleton at 10 uM after 1 to 9 hrs by DAPI staining-based fluorescence microscopic method. Format: cell-based.
The test system of series [13] is Entamoeba histolytica. The series is described as follows: Antiamoebic activity against Entamoeba histolytica assessed as growth inhibition at 25 ug/ml after 48 hrs by trypan blue dye-based hemocytometer relative to control. Type of series: functional. As to conditions: read-out: GI.
Series [14] can be described thus: Selectivity index, ratio of IC50 for human MCF10A cells to IC50 for vinblastine-resistant human KBV1 cells. Format: functional.
A further series concerns MDA-MB-231. The series is described as follows: Antiproliferative activity against human MDA-MB-231 cells after 96 hrs by MTT assay. Format: functional, cell-based. As to conditions: MDA-MB-231, 96 h.
The test system of series [15] is Entamoeba histolytica. The series is described as follows: Antiamoebic activity against Entamoeba histolytica assessed as growth inhibition at 25 ug/ml after 72 hrs by trypan blue dye-based hemocytometer relative to control. Type of series: functional. As to conditions: read-out: GI.
For another series, the system named is KB-V1. The series is described as follows: Antiproliferative activity against vinblastine-resistant human KBV1 cells after 72 hrs by MTT assay. Type of series: functional, cell-based. As to conditions: KB-V1, 72 h.
Series [16] concerns Entamoeba histolytica. The series is described as follows: Antiamoebic activity against Entamoeba histolytica assessed as growth inhibition at 100 ug/ml after 48 hrs by trypan blue dye-based hemocytometer relative to control. Format: functional. As to conditions: read-out: GI.
Series [17] in a line: Selectivity index, ratio of IC50 for human MCF10A cells to IC50 for human BxPC3 cells. Format: functional.
The nature of series [18]: Selectivity index, ratio of IC50 for human MCF10A cells to IC50 for human PC3 cells. Format: functional.
The test system of the next series is PC-3. The series is described as follows: Antiproliferative activity against human PC3 cells after 96 hrs by MTT assay. Type of series: functional, cell-based. As to conditions: PC-3, 96 h.
For series [19], the system named is 518A2. The series is described as follows: Induction of reactive oxygen species generation in human 518A2 cells at 0.1 uM after 24 hrs by NBT assay relative to control. Type of series: functional.
Series [20] has as its system 518A2. The series is described as follows: Antiproliferative activity against human 518A2 cells after 72 hrs by MTT assay. Type of series: functional, cell-based. As to conditions: 518A2, 72 h.
The nature of series [21]: Selectivity index, ratio of IC50 for human MCF10A cells to IC50 for human HCT116 cells. Type of series: functional.
The subject of series [22] is Entamoeba histolytica. The series is described as follows: Antiamoebic activity against Entamoeba histolytica assessed as growth inhibition at 100 ug/ml after 24 hrs by trypan blue dye-based hemocytometer relative to control. Type of series: functional. As to conditions: read-out: GI.
The subject of series [23] is Entamoeba histolytica. The series is described as follows: Antiamoebic activity against Entamoeba histolytica assessed as growth inhibition at 100 ug/ml after 72 hrs by trypan blue dye-based hemocytometer relative to control. Type of series: functional. As to conditions: read-out: GI.
The test system of series [24] is HeLa. The series is described as follows: Cytotoxicity against human HeLa cells assessed as effect on cell viability at 10 uM after 1 to 9 hrs by DAPI staining-based fluorescence microscopic method.
A further series has as its system MCF-10A. The series is described as follows: Antiproliferative activity against human MCF10A cells at 50 uM after 96 hrs by MTT assay. Type of series: cell-based.
In series [25] the test system is Entamoeba histolytica. The series is described as follows: Antiamoebic activity against Entamoeba histolytica assessed as growth inhibition at 200 ug/ml after 24 hrs by trypan blue dye-based hemocytometer relative to control. Format: functional. As to conditions: read-out: GI.
Series [26] has as its system Entamoeba histolytica. The series is described as follows: Antiamoebic activity against Entamoeba histolytica assessed as growth inhibition at 200 ug/ml after 48 hrs by trypan blue dye-based hemocytometer relative to control. Format: functional. As to conditions: read-out: GI.
Series [27] relates to Entamoeba histolytica. The series is described as follows: Antiamoebic activity against Entamoeba histolytica assessed as growth inhibition at 200 ug/ml after 72 hrs by trypan blue dye-based hemocytometer relative to control. Type of series: functional. As to conditions: read-out: GI.

Here are results for 2 compounds from ChEMBL document CHEMBL4002569, “Improved anticancer and antiparasitic activity of new lawsone Mannich bases” (Eur J Med Chem, 2017).

One may read the IC50 as the concentration that inhibits the measured activity by half. A low value points to greater potency.

Calls of active or inactive are those of the source. The calls are words filed in the database; no cut-off is given here. Where only a bound is given, the exact number is not on record here.

For `CCCCCCCCCCCCCCCCNC(C1=C(O)C(=O)c2ccccc2C1=O)c1ccccn1` (centres undefined), the “Ratio IC50” value is recorded as over 35 in series [1]; over 22 in series [2]; over 46 in series [5]; over 60 in [14]; over 61 in series [17]; over 75 in series [18]. Moreover, the “Ratio IC50” value in series [21] was over 24. Besides, the inhibition of growth at 50 µg/mL was determined as 82.1% in the series on Entamoeba histolytica [3], 66.6% in the series on Entamoeba histolytica [7] and 85.3% in the series with Entamoeba histolytica [11]. The IC50 was found to be 2.08 µM with HCT-116; 0.303 µM in series [6]; 0.82 µM with BXPC-3; 2.19 µM in the series with PANC-1; 1.1 µM in the series with MDA-MB-231; 0.83 µM in the series on KB-V1. Further, the IC50 with PC-3 was determined as 0.67 µM; in the series on 518A2 [20], 1.41 µM. Moreover, the outcome (in the series with 518A2 [4]; in [9]) was Active. Moreover, the results for the inhibition of growth at 25 µg/mL in the series with Entamoeba histolytica [8], with Entamoeba histolytica [13] and in the series on Entamoeba histolytica [15] were 60%, 66% and 70.6%, respectively. Also, in [10], the outcome was inactive. Moreover, the results for the Activity result in the series on HeLa [12], in the series with 518A2 [19] and in the series with HeLa [24] were “Non-Toxic”, 50% and “Non-Toxic”, respectively. Moreover, the values for the inhibition of growth at 100 µg/mL in the series with Entamoeba histolytica [16], in the series on Entamoeba histolytica [22] and in the series with Entamoeba histolytica [23] were 80.9%, 77.8% and 82.8%, respectively. In addition, the “growth inhibition (GI)” value with MCF-10A was “Non-Toxic”.

As for `Cc1ncc([N+](=O)[O-])n1CCO` [METRONIDAZOLE], the inhibition of growth at 200 µg/mL in the series on Entamoeba histolytica [25] stood at 54.1%; in the series with Entamoeba histolytica [26] it was 58.7%; with Entamoeba histolytica [27], 60.4%.
